Assay [1] deals with T1, human Gcg receptor (Homo sapiens, UniProt P47871).
T1 construct: expressed in transfected cells; crude membranes
In words: [125I]-Glucagon binding (SPA), human Gcg receptor. As to conditions: read-out: hGLcgR Ki, nM (SEM, n). The method, boiled down: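 Scintillation counts are taken after membranes and WGA beads incubate and settle for 12 hours at room temperature. Buffer is 25 mM HEPES, pH 7.4, with CaCl2, MgCl2, bacitracin and Tween-20. Ki values, from four-parameter IC50 fits, are geometric means over independent days.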

Assay [2] has as its target T2, human GIP receptor (Homo sapiens, UniProt P48546).
T2 construct: expressed in transfected cells; crude membranes
T2 sequence (P48546 22-466): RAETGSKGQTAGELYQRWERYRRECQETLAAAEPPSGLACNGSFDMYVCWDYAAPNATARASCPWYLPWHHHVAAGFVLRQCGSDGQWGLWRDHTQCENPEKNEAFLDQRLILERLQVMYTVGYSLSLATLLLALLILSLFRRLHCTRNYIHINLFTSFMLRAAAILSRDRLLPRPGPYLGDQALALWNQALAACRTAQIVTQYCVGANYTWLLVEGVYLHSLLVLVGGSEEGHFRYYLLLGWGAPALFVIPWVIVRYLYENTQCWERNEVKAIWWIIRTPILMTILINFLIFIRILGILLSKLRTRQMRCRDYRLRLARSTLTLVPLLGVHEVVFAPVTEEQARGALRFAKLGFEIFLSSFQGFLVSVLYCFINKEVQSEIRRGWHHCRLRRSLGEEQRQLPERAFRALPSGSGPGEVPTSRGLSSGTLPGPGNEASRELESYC
Nature of the assay: [125I]-GIP binding (SPA), human GIP receptor. As to conditions: read-out: hGIPR Ki, nM (SEM, n).

Assay [3] deals with T3, gastric inhibitory peptide receptor (GIPR) (Homo sapiens, UniProt P48546).
T3 sequence (P48546 22-466): T2 sequence (P48546 22-466)
Nature of the assay: cAMP pharmacological functional assay in presence of casein, hGIPR. It is filed as cell-based. As to conditions: HEK293 cells expressing hGIPR, 0.1% Casein, geometric mean; read-out: hGIPR cAMP Rel EC50 nM (SEM, n).

Assay [4] deals with human GLP-1R (Homo sapiens, UniProt P43220). Nature of the assay: [125I]-GLP-1 binding (SPA), human GLP-1 receptor. As to conditions: read-out: hGLP1R Ki, (nM) (SEM, n). Details: expressed in transfected cells; crude membranes. An outline of the steps: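 Crude-membrane binding assay; one membrane prep included 1 mM MgCl2 and 25 units/ml DNAse I during lysis. Assay buffer at pH 7.4 contains 0.1% (w/v) bacitracin and 0.003% (w/v) TWEEN-20. Ki is reported as geometric mean.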

The target in assay [5] is human GLP-1 receptor (GLP-1R) (Homo sapiens, UniProt P43220). Nature of the assay: cAMP pharmacological functional assay in presence of casein, hGLP-1R. Conditions: HEK293 cells expressing hGLP-1R, 0.1% Casein, geometric mean; read-out: hGLP1R cAMP Rel EC50 nM (SEM, n). It is filed as cell-based.

Numbered stars: 1 amine (or outer) side, 2 acyl side, 3 side chain; on linkers, the order of the positions; unused ones are H or OH. Square brackets hold non-standard residues; d marks the D form. Side chains are listed from the residue outwards. Peptide text beside a SMILES is read from it. * marks the point of attachment. C20 diacid = O=C(O)CCCCCCCCCCCCCCCCCCC(=O)*; αMePhe(2-F) = C[C@](N)(Cc1ccccc1F)C(=O)O; γGlu = O=C(O)[C@H](CCC(=O)[*:2])N[*:1]; αMeF = C[C@](N)(Cc1ccccc1)C(=O)O; 4Pal = N[C@@H](Cc1ccncc1)C(=O)O; Aad = N[C@@H](CCCC(=O)O)C(=O)O; αMeL = CC(C)C[C@](C)(N)C(=O)O; AEEA = NCCOCCOCC(=O)O; Aib = CC(C)(N)C(=O)O

T1 sequence (P47871 26-477): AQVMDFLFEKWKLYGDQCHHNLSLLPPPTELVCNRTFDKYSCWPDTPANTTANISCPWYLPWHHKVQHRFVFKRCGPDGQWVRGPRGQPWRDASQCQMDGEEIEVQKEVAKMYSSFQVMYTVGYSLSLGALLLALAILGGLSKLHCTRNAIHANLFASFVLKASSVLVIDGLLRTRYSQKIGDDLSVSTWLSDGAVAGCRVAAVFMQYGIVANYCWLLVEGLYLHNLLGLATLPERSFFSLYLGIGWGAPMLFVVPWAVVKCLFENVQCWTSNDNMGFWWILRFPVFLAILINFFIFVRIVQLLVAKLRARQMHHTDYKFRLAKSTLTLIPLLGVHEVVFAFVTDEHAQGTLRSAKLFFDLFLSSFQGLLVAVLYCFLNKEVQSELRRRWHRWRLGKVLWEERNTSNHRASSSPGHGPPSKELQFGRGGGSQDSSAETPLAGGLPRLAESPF
Sequence of human GLP-1R (P43220 24-463): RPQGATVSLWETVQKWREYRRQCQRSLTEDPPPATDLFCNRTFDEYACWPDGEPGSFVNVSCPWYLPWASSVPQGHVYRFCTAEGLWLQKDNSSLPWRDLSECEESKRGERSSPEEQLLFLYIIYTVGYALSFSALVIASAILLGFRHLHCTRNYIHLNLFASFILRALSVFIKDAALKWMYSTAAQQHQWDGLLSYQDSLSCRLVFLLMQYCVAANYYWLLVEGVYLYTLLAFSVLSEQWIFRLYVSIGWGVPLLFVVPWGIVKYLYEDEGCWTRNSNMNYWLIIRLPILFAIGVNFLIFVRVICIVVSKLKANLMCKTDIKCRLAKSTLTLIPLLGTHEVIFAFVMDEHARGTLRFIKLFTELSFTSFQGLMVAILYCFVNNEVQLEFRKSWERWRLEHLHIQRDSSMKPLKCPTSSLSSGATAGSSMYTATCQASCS
Sequence of human GLP-1 receptor (GLP-1R) (P43220 24-463): as above

Take `CC[C@H](C)[C@H](NC(=O)[C@H](CC(C)C)NC(=O)[C@H](Cc1ccc(O)cc1)NC(=O)[C@H](CCC(=O)O)NC(=O)[C@@H](NC(=O)[C@H](Cc1ccccc1)NC(=O)[C@H](CCCC(=O)O)NC(=O)C(C)(C)NC(=O)[C@H](CCC(N)=O)NC(=O)[C@H](C)NC(=O)[C@H](CCCCNC(=O)COCCOCCNC(=O)COCCOCCNC(=O)CC[C@H](NC(=O)CCCCCCCCCCCCCCCCCCC(=O)O)C(=O)O)NC(=O)[C@H](CCCCN)NC(=O)[C@H](CC(=O)O)NC(=O)[C@H](CC(C)C)NC(=O)[C@](C)(CC(C)C)NC(=O)[C@@H](NC(=O)[C@H](CO)NC(=O)[C@H](Cc1ccc(O)cc1)NC(=O)[C@H](CC(=O)O)NC(=O)[C@H](CO)NC(=O)[C@@H](NC(=O)[C@](C)(Cc1ccccc1)NC(=O)[C@@H](NC(=O)CNC(=O)[C@H](CCC(=O)O)NC(=O)C(C)(C)NC(=O)[C@@H](N)Cc1ccc(O)cc1)[C@@H](C)O)[C@@H](C)O)[C@@H](C)CC)[C@@H](C)CC)C(=O)N[C@@H](CCC(=O)O)C(=O)NCC(=O)NCC(=O)N1CCC[C@H]1C(=O)N[C@@H](CO)C(=O)N[C@@H](CO)C(=O)NCC(=O)N[C@@H](C)C(=O)N1CCC[C@H]1C(=O)N1CCC[C@H]1C(=O)N1CCC[C@H]1C(=O)N[C@@H](CO)C(N)=O` [Example 137] (H-Y[Aib]EGT[αMeF]TSDYSI[αMeL]LDKK([AEEA-AEEA-γGlu-C20 diacid])AQ[Aib][Aad]FIEYLIEGGPSSGAPPPS-NH2): the values for the Ki in assay [1], in assay [2] and in assay [4] were 98.1 nM, 0.0373 nM and 1.24 nM, respectively. In addition, the EC50 in assay [3] came to 0.0333 nM; in assay [5], 0.0397 nM.

As for `CC[C@H](C)[C@H](NC(=O)[C@H](CCCCN)NC(=O)[C@H](CC(=O)O)NC(=O)[C@H](CC(C)C)NC(=O)[C@H](CC(C)C)NC(=O)[C@@H](NC(=O)[C@H](CO)NC(=O)[C@H](Cc1ccc(O)cc1)NC(=O)[C@H](CC(=O)O)NC(=O)[C@H](CO)NC(=O)[C@@H](NC(=O)[C@H](Cc1ccccc1)NC(=O)[C@@H](NC(=O)CNC(=O)[C@H](CCC(=O)O)NC(=O)C(C)(C)NC(=O)[C@@H](N)Cc1ccc(O)cc1)[C@@H](C)O)[C@@H](C)O)[C@@H](C)CC)C(=O)N[C@@H](C)C(=O)N[C@@H](CCCCNC(=O)COCCOCCNC(=O)COCCOCCNC(=O)CC[C@H](NC(=O)CCCCCCCCCCCCCCCCCCC(=O)O)C(=O)O)C(=O)NC(C)(C)C(=O)N[C@@H](C)C(=O)N[C@@H](Cc1ccccc1)C(=O)N[C@H](C(=O)N[C@@H](CCC(=O)O)C(=O)N[C@@H](Cc1ccc(O)cc1)C(=O)N[C@@H](CC(C)C)C(=O)N[C@H](C(=O)N[C@@H](CCC(=O)O)C(=O)NCC(=O)NCC(=O)N1CCC[C@H]1C(=O)N[C@@H](CO)C(=O)N[C@@H](CO)C(=O)NCC(=O)N[C@@H](C)C(=O)N1CCC[C@H]1C(=O)N1CCC[C@H]1C(=O)N1CCC[C@H]1C(=O)N[C@@H](CO)C(N)=O)[C@@H](C)CC)[C@@H](C)CC` [Example 31] (H-Y[Aib]EGTFTSDYSILLDKIAK([AEEA-AEEA-γGlu-C20 diacid])[Aib]AFIEYLIEGGPSSGAPPPS-NH2), the Ki in assay [1] stood at 290 nM; in assay [2] it was 0.0275 nM; in assay [4], 6.58 nM. In addition, the results for the EC50 in assay [3] and in assay [5] were 0.388 nM and 0.891 nM, respectively.

Consider `CC[C@H](C)[C@H](NC(=O)[C@H](CCCCN)NC(=O)[C@H](CCCCNC(=O)COCCOCCNC(=O)COCCOCCNC(=O)CC[C@H](NC(=O)CCCCCCCCCCCCCCCCCCC(=O)O)C(=O)O)NC(=O)[C@H](CC(C)C)NC(=O)[C@H](CC(C)C)NC(=O)[C@@H](NC(=O)[C@H](CO)NC(=O)[C@H](Cc1ccc(O)cc1)NC(=O)[C@H](CC(=O)O)NC(=O)[C@H](CO)NC(=O)[C@@H](NC(=O)[C@H](Cc1ccccc1)NC(=O)[C@@H](NC(=O)CNC(=O)[C@H](CCC(=O)O)NC(=O)C(C)(C)NC(=O)[C@@H](N)Cc1ccc(O)cc1)[C@@H](C)O)[C@@H](C)O)[C@@H](C)CC)C(=O)N[C@@H](C)C(=O)N[C@@H](CCC(N)=O)C(=O)NC(C)(C)C(=O)N[C@@H](C)C(=O)N[C@@H](Cc1ccccc1)C(=O)N[C@H](C(=O)N[C@@H](CCC(=O)O)C(=O)N[C@@H](Cc1ccc(O)cc1)C(=O)N[C@@H](CC(C)C)C(=O)N[C@H](C(=O)N[C@@H](CCC(=O)O)C(=O)NCC(=O)NCC(=O)N1CCC[C@H]1C(=O)N[C@@H](CO)C(=O)N[C@@H](CO)C(=O)NCC(=O)N[C@@H](C)C(=O)N1CCC[C@H]1C(=O)N1CCC[C@H]1C(=O)N1CCC[C@H]1C(=O)N[C@@H](CO)C(N)=O)[C@@H](C)CC)[C@@H](C)CC` [Example 28] (H-Y[Aib]EGTFTSDYSILLK([AEEA-AEEA-γGlu-C20 diacid])KIAQ[Aib]AFIEYLIEGGPSSGAPPPS-NH2), for which the Ki was above 902 nM in assay [1], 0.24 nM in assay [2] and 21.1 nM in assay [4]. Further, the figures for the 50% effective concentration (EC50) in assay [3] and in assay [5] were 1.66 nM and 32.7 nM, respectively.

In the case of `CC[C@H](C)[C@H](NC(=O)[C@H](CC(C)C)NC(=O)[C@H](Cc1ccc(O)cc1)NC(=O)C(C)(C)NC(=O)[C@@H](NC(=O)[C@H](Cc1ccccc1)NC(=O)[C@H](CCC(=O)O)NC(=O)C(C)(C)NC(=O)[C@H](CCC(N)=O)NC(=O)[C@H](C)NC(=O)[C@H](CCCCNC(=O)COCCOCCNC(=O)COCCOCCNC(=O)CC[C@H](NC(=O)CCCCCCCCCCCCCCCCCCC(=O)O)C(=O)O)NC(=O)[C@H](CCC(=O)O)NC(=O)[C@H](CC(=O)O)NC(=O)[C@H](CC(C)C)NC(=O)[C@](C)(CC(C)C)NC(=O)[C@@H](NC(=O)[C@H](CO)NC(=O)[C@H](Cc1ccncc1)NC(=O)[C@H](CC(=O)O)NC(=O)[C@H](CO)NC(=O)[C@@H](NC(=O)[C@](C)(Cc1ccccc1F)NC(=O)[C@@H](NC(=O)CNC(=O)[C@H](CCC(=O)O)NC(=O)C(C)(C)NC(=O)[C@@H](N)Cc1ccc(O)cc1)[C@@H](C)O)[C@@H](C)O)[C@@H](C)CC)[C@@H](C)CC)C(=O)N[C@@H](CCC(=O)O)C(=O)NCC(=O)NCC(=O)N1CCC[C@H]1C(=O)N[C@@H](CO)C(=O)N[C@@H](CO)C(=O)NCC(=O)N[C@@H](C)C(=O)N1CCC[C@H]1C(=O)N1CCC[C@H]1C(=O)N1CCC[C@H]1C(=O)N[C@@H](CO)C(N)=O` [Example 189] (H-Y[Aib]EGT[αMePhe(2-F)]TSD[4Pal]SI[αMeL]LDEK([AEEA-AEEA-γGlu-C20 diacid])AQ[Aib]EFI[Aib]YLIEGGPSSGAPPPS-NH2), the Ki in assay [1] amounted to 146 nM; in assay [2] it was 0.128 nM; in assay [4] it was 8.81 nM. Also, the EC50 in assay [3] was found to be 0.0775 nM; in assay [5] it was 0.0608 nM.

Take `CC[C@H](C)[C@H](NC(=O)[C@H](CO)NC(=O)[C@H](CC(=O)O)NC(=O)[C@H](CC(C)C)NC(=O)[C@H](CC(C)C)NC(=O)[C@@H](NC(=O)[C@H](CO)NC(=O)[C@H](Cc1ccc(O)cc1)NC(=O)[C@H](CC(=O)O)NC(=O)[C@H](CO)NC(=O)[C@@H](NC(=O)[C@H](Cc1ccccc1)NC(=O)[C@@H](NC(=O)CNC(=O)[C@H](CCC(=O)O)NC(=O)C(C)(C)NC(=O)[C@@H](N)Cc1ccc(O)cc1)[C@@H](C)O)[C@@H](C)O)[C@@H](C)CC)C(=O)N[C@@H](C)C(=O)N[C@@H](CCC(N)=O)C(=O)NC(C)(C)C(=O)N[C@@H](C)C(=O)N[C@@H](Cc1ccccc1)C(=O)N[C@H](C(=O)N[C@@H](CCC(=O)O)C(=O)N[C@@H](Cc1ccc(O)cc1)C(=O)N[C@@H](CC(C)C)C(=O)N[C@@H](CC(C)C)C(=O)N[C@@H](CCCCNC(=O)COCCOCCNC(=O)COCCOCCNC(=O)CC[C@H](NC(=O)CCCCCCCCCCCCCCCCCCC(=O)O)C(=O)O)C(=O)NC(C)(C)C(=O)NCC(=O)N1CCC[C@H]1C(=O)N[C@@H](CO)C(=O)N[C@@H](CO)C(=O)NCC(=O)N[C@@H](C)C(=O)N1CCC[C@H]1C(=O)N1CCC[C@H]1C(=O)N1CCC[C@H]1C(=O)N[C@@H](CO)C(N)=O)[C@@H](C)CC` [Example 11] (H-Y[Aib]EGTFTSDYSILLDSIAQ[Aib]AFIEYLLK([AEEA-AEEA-γGlu-C20 diacid])[Aib]GPSSGAPPPS-NH2): the inhibition constant (Ki) is 174 nM in assay [1], 0.226 nM in assay [2] and 15.7 nM in assay [4]. Also, the EC50 in assay [3] amounted to 0.486 nM; in assay [5], 6.89 nM.

For the origin of these results see patent publication US12252524B2, “GIP/GLP1 co-agonist compounds” (Eli Lilly and Company, priority 2018, dated 2025).
